Test results reported in ChEMBL document CHEMBL5120960, “Unveiling the Structure-Activity Relationships at the Orthosteric Binding Site of P2X Ion Channels: The Route to Selectivity” (J Med Chem, 2022).

Tests used:
Format in all cases: cell-based
P2X purinoceptor 7 [1] = target: T1, P2X purinoceptor 7 (Homo sapiens, UniProt Q99572); assay: […] activity at human P2X7R expressed in HEK293 cells assessed as reduction in YO-PRO-1 iodide dye uptake preincubated for 30 mins followed by YO-PRO-1 iodide addition and measured after 2 hrs by fluorescence based multimode plate reader analysis
T1 sequence (Q99572 whole entry): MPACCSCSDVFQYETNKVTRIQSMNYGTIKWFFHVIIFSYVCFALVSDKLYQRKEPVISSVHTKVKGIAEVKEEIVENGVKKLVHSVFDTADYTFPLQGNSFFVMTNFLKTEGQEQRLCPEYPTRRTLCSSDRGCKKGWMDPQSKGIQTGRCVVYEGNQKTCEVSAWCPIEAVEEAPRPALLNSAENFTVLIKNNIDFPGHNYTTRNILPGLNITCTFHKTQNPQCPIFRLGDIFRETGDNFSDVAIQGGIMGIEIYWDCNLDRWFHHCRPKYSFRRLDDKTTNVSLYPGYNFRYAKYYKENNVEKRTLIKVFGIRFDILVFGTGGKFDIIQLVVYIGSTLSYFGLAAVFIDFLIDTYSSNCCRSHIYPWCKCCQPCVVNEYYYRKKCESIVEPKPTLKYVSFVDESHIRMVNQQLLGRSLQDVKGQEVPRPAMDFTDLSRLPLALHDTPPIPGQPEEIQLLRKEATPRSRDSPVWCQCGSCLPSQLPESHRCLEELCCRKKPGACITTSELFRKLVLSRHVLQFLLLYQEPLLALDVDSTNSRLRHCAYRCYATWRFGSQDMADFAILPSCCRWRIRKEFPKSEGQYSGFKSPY

P2X purinoceptor 3 [2] = target: T2, P2X purinoceptor 3 (Homo sapiens, UniProt P56373); assay: […] activity at human P2X3R expressing CHO cells assessed as reduction in intracellular Ca2+ influx pretreated with Fluo-4 for 1 hr followed by compound addition and further incubated for 30 mins in presence of ATP by multimode plate reader analysis
T2 sequence (P56373 whole entry): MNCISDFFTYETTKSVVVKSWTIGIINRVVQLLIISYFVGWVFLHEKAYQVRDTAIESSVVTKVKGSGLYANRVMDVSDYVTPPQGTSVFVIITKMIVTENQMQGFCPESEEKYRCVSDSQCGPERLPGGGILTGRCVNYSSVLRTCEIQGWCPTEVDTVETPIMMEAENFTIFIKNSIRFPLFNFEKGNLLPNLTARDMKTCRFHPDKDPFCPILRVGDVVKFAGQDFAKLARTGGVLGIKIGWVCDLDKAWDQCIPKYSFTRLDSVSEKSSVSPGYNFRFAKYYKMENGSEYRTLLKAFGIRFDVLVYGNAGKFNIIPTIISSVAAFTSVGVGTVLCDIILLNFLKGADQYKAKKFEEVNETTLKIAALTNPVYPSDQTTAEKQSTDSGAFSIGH

P2X purinoceptor 1 [3] = target: T3, P2X purinoceptor 1 (Homo sapiens, UniProt P51575); assay: […] activity at human P2X1R expressing CHO cells assessed as reduction in intracellular Ca2+ influx pretreated with Fluo-4 for 1 hr followed by compound addition and further incubated for 30 mins in presence of ATP by multimode plate reader analysis
T3 sequence (P51575 whole entry): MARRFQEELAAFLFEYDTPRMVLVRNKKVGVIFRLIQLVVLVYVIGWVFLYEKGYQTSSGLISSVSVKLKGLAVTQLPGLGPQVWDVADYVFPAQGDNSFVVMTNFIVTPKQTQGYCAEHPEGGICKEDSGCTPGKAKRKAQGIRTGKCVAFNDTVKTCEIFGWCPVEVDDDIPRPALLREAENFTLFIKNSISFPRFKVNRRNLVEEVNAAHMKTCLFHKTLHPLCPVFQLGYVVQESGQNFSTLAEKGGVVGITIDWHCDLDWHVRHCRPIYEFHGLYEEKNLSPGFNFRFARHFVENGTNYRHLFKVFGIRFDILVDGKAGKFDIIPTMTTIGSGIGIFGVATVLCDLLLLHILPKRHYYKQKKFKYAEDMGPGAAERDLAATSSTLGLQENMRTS

P2X purinoceptor 7 [4] = target: T1, P2X purinoceptor 7; assay: […] activity at human P2X7R expressing HEK293 cells assessed as reduction in intracellular Ca2+ influx pretreated with Fluo-4 for 1 hr followed by compound addition and further incubated for 30 mins in presence of ATP by multimode plate reader analysis
P2X purinoceptor 2 [5] = target: T4, P2X purinoceptor 2 (Homo sapiens, UniProt Q9UBL9); assay: […] activity at human P2X2R expressing CHO cells assessed as reduction in intracellular Ca2+ influx pretreated with Fluo-4 for 1 hr followed by compound addition and further incubated for 30 mins in presence of ATP by multimode plate reader analysis
T4 sequence (Q9UBL9 whole entry): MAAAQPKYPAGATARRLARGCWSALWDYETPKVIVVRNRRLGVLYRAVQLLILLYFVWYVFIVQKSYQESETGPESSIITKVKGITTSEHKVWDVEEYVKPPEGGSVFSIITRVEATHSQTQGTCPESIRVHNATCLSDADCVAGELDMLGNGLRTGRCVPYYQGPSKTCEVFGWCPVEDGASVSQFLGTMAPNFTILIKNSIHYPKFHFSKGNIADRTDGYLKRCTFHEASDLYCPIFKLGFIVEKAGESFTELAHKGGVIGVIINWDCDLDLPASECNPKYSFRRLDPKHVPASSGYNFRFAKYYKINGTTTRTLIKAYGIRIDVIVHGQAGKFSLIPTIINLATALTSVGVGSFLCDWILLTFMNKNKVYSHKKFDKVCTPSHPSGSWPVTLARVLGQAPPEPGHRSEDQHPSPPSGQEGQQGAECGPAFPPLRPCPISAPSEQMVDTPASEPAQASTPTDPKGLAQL

[6] = target: T5, P2X2/P2X3 heterotrimeric receptor (Homo sapiens, UniProt P56373+Q9UBL9); assay: […] activity at human P2X2R/P2X3R expressing CHO cells assessed as reduction in intracellular Ca2+ influx pretreated with Fluo-4 for 1 hr followed by compound addition and further incubated for 30 mins in presence of ATP by multimode plate reader analysis
T5 sequence (Q9UBL9 whole entry): T4 sequence (Q9UBL9 whole entry)
T5 sequence (P56373 whole entry): T2 sequence (P56373 whole entry)

P2X purinoceptor 4 [7] = target: T6, P2X purinoceptor 4 (Homo sapiens, UniProt Q99571); assay: […] activity at human P2X4R expressing HEK293 cells assessed as reduction in intracellular Ca2+ influx pretreated with Fluo-4 for 1 hr followed by compound addition and further incubated for 30 mins in presence of ATP by multimode plate reader analysis
T6 sequence (Q99571 whole entry): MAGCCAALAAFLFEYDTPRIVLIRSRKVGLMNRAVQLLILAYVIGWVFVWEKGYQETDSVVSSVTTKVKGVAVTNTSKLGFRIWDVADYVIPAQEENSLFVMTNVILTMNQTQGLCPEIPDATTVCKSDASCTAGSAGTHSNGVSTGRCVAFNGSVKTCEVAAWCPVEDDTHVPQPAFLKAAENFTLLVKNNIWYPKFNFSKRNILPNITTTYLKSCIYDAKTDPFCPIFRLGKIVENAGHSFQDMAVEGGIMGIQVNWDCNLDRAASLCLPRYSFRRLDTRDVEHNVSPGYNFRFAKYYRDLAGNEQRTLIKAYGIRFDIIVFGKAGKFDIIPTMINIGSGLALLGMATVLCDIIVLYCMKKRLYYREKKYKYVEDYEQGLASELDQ

P2X purinoceptor 3 [8] = target: T2, P2X purinoceptor 3; assay: Antagonist activity at human P2X3R expressing CHO cells assessed as reduction in intracellular Ca2+ influx pretreated with Fluo-4 for 1 hr followed by compound addition and further incubated for 30 mins in presence of ATP by multimode plate reader analysis
[9] = target: T5, P2X2/P2X3 heterotrimeric receptor; assay: Antagonist activity at human P2X2R/P2X3R expressing CHO cells assessed as reduction in intracellular Ca2+ influx pretreated with Fluo-4 for 1 hr followed by compound addition and further incubated for 30 mins in presence of ATP by multimode plate reader analysis
P2X purinoceptor 4 [10] = target: T6, P2X purinoceptor 4; assay: Antagonist activity at human P2X4R expressing HEK293 cells assessed as reduction in intracellular Ca2+ influx pretreated with Fluo-4 for 1 hr followed by compound addition and further incubated for 30 mins in presence of ATP by multimode plate reader analysis
P2X purinoceptor 2 [11] = target: T4, P2X purinoceptor 2; assay: Antagonist activity at human P2X2R expressing CHO cells assessed as reduction in intracellular Ca2+ influx pretreated with Fluo-4 for 1 hr followed by compound addition and further incubated for 30 mins in presence of ATP by multimode plate reader analysis
P2X purinoceptor 7 [12] = target: T1, P2X purinoceptor 7; assay: Antagonist activity at human P2X7R expressing HEK293 cells assessed as reduction in intracellular Ca2+ influx pretreated with Fluo-4 for 1 hr followed by compound addition and further incubated for 30 mins in presence of ATP by multimode plate reader analysis
P2X purinoceptor 1 [13] = target: T3, P2X purinoceptor 1; assay: Antagonist activity at human P2X1R expressing CHO cells assessed as reduction in intracellular Ca2+ influx pretreated with Fluo-4 for 1 hr followed by compound addition and further incubated for 30 mins in presence of ATP by multimode plate reader analysis

SMILES | IC50 (P2X purinoceptor 7 [1]) | IC50 (P2X purinoceptor 3 [2]) | IC50 (P2X purinoceptor 1 [3]) | IC50 (P2X purinoceptor 7 [4]) | IC50 (P2X purinoceptor 2 [5]) | IC50 [6] | IC50 (P2X purinoceptor 4 [7]) | EC50 (P2X purinoceptor 7 [1]) | EC50 (P2X purinoceptor 3 [2]) | EC50 (P2X purinoceptor 1 [3]) | IC50 (P2X purinoceptor 3 [8]) | IC50 [9] | IC50 (P2X purinoceptor 4 [10]) | IC50 (P2X purinoceptor 2 [11]) | EC50 (P2X purinoceptor 7 [4]) | IC50 (P2X purinoceptor 7 [12]) | EC50 (P2X purinoceptor 2 [5]) | EC50 [6] | EC50 (P2X purinoceptor 4 [7]) | IC50 (P2X purinoceptor 1 [13])
Nc1ncnc2c1ncn2[C@@H]1O[C@H](COP(=O)(O)OP(=O)(O)OP(=O)(O)O)[C@@H](O)[C@@H]1O | > 100 µM | > 100 µM | > 100 µM | > 100 µM | > 100 µM | > 100000 nM | 10.5 µM | – | – | – | – | – | – | – | – | – | – | – | – | –
Nc1ncnc2c1ncn2[C@@H]1O[C@H](COP(=O)(O)OP(=O)(O)OP(=O)(O)O)[C@@H](O)[C@H]1N | > 100 µM | 4.27 µM | 6.46 µM | > 100 µM | > 100 µM | 363 nM | > 100 µM | – | – | – | – | – | – | – | – | – | – | – | – | –
O=c1[nH]c2cncnc2n1[C@@H]1O[C@H](COP(=O)(O)OP(=O)(O)OP(=O)(O)O)[C@@H](O)[C@H]1O | > 100 µM | 11 µM | > 100 µM | > 100 µM | > 100 µM | > 100000 nM | > 100 µM | – | – | – | – | – | – | – | – | – | – | – | – | –
Nc1ncnc2c1ncn2[C@@H]1O[C@H](COP(=O)(O)OP(=O)(O)OP(=O)(O)O)[C@@H](OC(=O)c2ccccc2)[C@H]1OC(=O)c1ccccc1 | – | – | – | – | – | – | – | > 100 µM | > 100 µM | > 100 µM | > 100 µM | > 100 µM | > 100 µM | 26.3 µM | > 100 µM | > 100 µM | > 100 µM | 1200 nM | 1480 nM | > 100 µM
CNc1ncnc2c1ncn2[C@@H]1O[C@H](COP(=O)(O)OP(=O)(O)OP(=O)(O)O)[C@@H](O)[C@H]1O | > 100 µM | 1.29 µM | > 100 µM | > 100 µM | > 100 µM | 263 nM | > 100 µM | – | – | – | – | – | – | – | – | – | – | – | – | –
[N-]=[N+]=Nc1nc2c(N)ncnc2n1[C@@H]1O[C@H](COP(=O)(O)OP(=O)(O)OP(=O)(O)O)[C@@H](O)[C@H]1O | > 100 µM | > 100 µM | > 100 µM | > 100 µM | > 100 µM | > 100000 nM | > 100 µM | – | – | – | – | – | – | – | – | – | – | – | – | –
O=P(O)(O)OP(=O)(O)OP(=O)(O)OC[C@H]1O[C@@H](n2cnc3c(NCc4ccccc4)ncnc32)[C@H](O)[C@@H]1O | > 100 µM | > 100 µM | > 100 µM | > 100 µM | 3.98 µM | 2690 nM | > 100 µM | – | – | – | – | – | – | – | – | – | – | – | – | –
